Source: patent US20260130395A1, “Water Dispersible Botanical Compositions” (Aquila Black Limited, priority 2021, published 2026)

Test: Stability of cannabinoid compounds and Vitamin E components in Beverage 1 (AB White) by LCMSMS
Format: physicochemical
Conditions: for Stability of Plant-Derived Cannabinoid Compounds in AB White, 8° C.: AB White stored at 8° C.; for Stability of Plant-Derived Cannabinoid Compounds in AB White, 21-25° C.: AB White stored at 21-25° C.
Protocol: The stability of the plant-derived cannabinoid compounds and Vitamin E components of the beverage stored 8° C. and at room temperature (21-25° C.) were monitored, over a period of 570 days via Liquid Chromatography-tandem Mass Spectrometry [LCMSMS, Agilent 6590, C18, 3×50 mm, 2.7 m (Agilent InfinityLab Poroshell 120 EC-C18), Electrospray Ionization detector]. The LCMSMS was calibrated for 0-1000 ng/ml cannabinoids with the same resin material used in the preparation of the concentrates. At each time period, 100 ml of beverage was diluted with 10 ml of methanol and injected into the LCMSMS for analysis.

**Q.** For `C=C(C)[C@@H]1CCC(C)=C[C@H]1c1c(O)cc(CCC)cc1O` [CBDV, cannabidivarin], which “Stability of Plant-Derived Cannabinoid Compounds in AB White, 8° C.” value (shortened to “Stability … 8° C.”) (29 days) is on record?
**A.** 0.151 µg/mL

**Q.** What about the “Stability … 8° C.” value (30 days) of the same molecule?
**A.** 0.148 µg/mL

**Q.** And the “Stability … 8° C.” value (60 days)?
**A.** 0.143 µg/mL

**Q.** And the “Stability … 8° C.” value (90 days)?
**A.** 0.146 µg/mL

**Q.** And the “Stability … 8° C.” value (120 days)?
**A.** 0.144 µg/mL

**Q.** And the “Stability … 8° C.” value (150 days)?
**A.** 0.150 µg/mL

**Q.** What about the “Stability … 8° C.” value (180 days) of the same molecule?
**A.** 0.150 µg/mL

**Q.** And the “Stability … 8° C.” value (210 days)?
**A.** 0.147 µg/mL

**Q.** And the “Stability … 8° C.” value (240 days)?
**A.** 0.145 µg/mL

**Q.** And the “Stability … 8° C.” value (270 days)?
**A.** 0.143 µg/mL

**Q.** What about the “Stability … 8° C.” value (300 days) of the same molecule?
**A.** 0.143 µg/mL

**Q.** What about the “Stability … 8° C.” value (330 days) of the same molecule?
**A.** 0.146 µg/mL

**Q.** And the “Stability … 8° C.” value (360 days)?
**A.** 0.145 µg/mL

**Q.** And the “Stability … 8° C.” value (390 days)?
**A.** 0.143 µg/mL

**Q.** And the “Stability … 8° C.” value (420 days)?
**A.** 0.144 µg/mL

**Q.** What about the “Stability … 8° C.” value (450 days) of the same molecule?
**A.** 0.145 µg/mL

**Q.** What about the “Stability … 8° C.” value (480 days) of the same molecule?
**A.** 0.143 µg/mL

**Q.** What about the “Stability … 8° C.” value (510 days) of the same molecule?
**A.** 0.138 µg/mL

**Q.** What about the “Stability … 8° C.” value (540 days) of the same molecule?
**A.** 0.139 µg/mL

**Q.** What about the “Stability … 8° C.” value (570 days) of the same molecule?
**A.** 0.138 µg/mL

**Q.** What about the “Stability of Plant-Derived Cannabinoid Compounds in AB White, 21-25° C.” value (“Stability … 21-25° C.” below) (0 days) of the same molecule?
**A.** 0.150 µg/mL

**Q.** And the “Stability … 21-25° C.” value (1 days)?
**A.** 0.149 µg/mL

**Q.** And the “Stability … 21-25° C.” value (2 days)?
**A.** 0.148 µg/mL

**Q.** What about the “Stability … 21-25° C.” value (3 days) of the same molecule?
**A.** 0.149 µg/mL

**Q.** And the “Stability … 21-25° C.” value (5 days)?
**A.** 0.144 µg/mL

**Q.** And the “Stability … 21-25° C.” value (8 days)?
**A.** 0.145 µg/mL

**Q.** What about the “Stability … 21-25° C.” value (9 days) of the same molecule?
**A.** 0.148 µg/mL

**Q.** And the “Stability … 21-25° C.” value (10 days)?
**A.** 0.147 µg/mL

**Q.** And the “Stability … 21-25° C.” value (11 days)?
**A.** 0.150 µg/mL

**Q.** And the “Stability … 21-25° C.” value (12 days)?
**A.** 0.152 µg/mL

**Q.** What about the “Stability … 21-25° C.” value (15 days) of the same molecule?
**A.** 0.151 µg/mL

**Q.** And the “Stability … 21-25° C.” value (16 days)?
**A.** 0.145 µg/mL

**Q.** And the “Stability … 21-25° C.” value (17 days)?
**A.** 0.150 µg/mL

**Q.** And the “Stability … 21-25° C.” value (18 days)?
**A.** 0.151 µg/mL

**Q.** And the “Stability … 21-25° C.” value (19 days)?
**A.** 0.148 µg/mL

**Q.** What about the “Stability … 21-25° C.” value (22 days) of the same molecule?
**A.** 0.148 µg/mL

**Q.** And the “Stability … 21-25° C.” value (23 days)?
**A.** 0.148 µg/mL

**Q.** And the “Stability … 21-25° C.” value (24 days)?
**A.** 0.145 µg/mL

**Q.** And the “Stability … 21-25° C.” value (25 days)?
**A.** 0.145 µg/mL

**Q.** And the “Stability … 21-25° C.” value (26 days)?
**A.** 0.149 µg/mL

**Q.** And the “Stability … 21-25° C.” value (29 days)?
**A.** 0.147 µg/mL

**Q.** What about the “Stability … 21-25° C.” value (30 days) of the same molecule?
**A.** 0.151 µg/mL

**Q.** What about the “Stability … 21-25° C.” value (60 days) of the same molecule?
**A.** 0.149 µg/mL

**Q.** And the “Stability … 21-25° C.” value (90 days)?
**A.** 0.143 µg/mL

**Q.** What about the “Stability … 21-25° C.” value (120 days) of the same molecule?
**A.** 0.141 µg/mL

**Q.** And the “Stability … 21-25° C.” value (150 days)?
**A.** 0.146 µg/mL

**Q.** What about the “Stability … 21-25° C.” value (180 days) of the same molecule?
**A.** 0.141 µg/mL

**Q.** What about the “Stability … 21-25° C.” value (210 days) of the same molecule?
**A.** 0.142 µg/mL

**Q.** What about the “Stability … 21-25° C.” value (240 days) of the same molecule?
**A.** 0.145 µg/mL

**Q.** What about the “Stability … 21-25° C.” value (270 days) of the same molecule?
**A.** 0.148 µg/mL

**Q.** What about the “Stability … 21-25° C.” value (300 days) of the same molecule?
**A.** 0.142 µg/mL

**Q.** What about the “Stability … 21-25° C.” value (330 days) of the same molecule?
**A.** 0.144 µg/mL

**Q.** And the “Stability … 21-25° C.” value (360 days)?
**A.** 0.146 µg/mL

**Q.** And the “Stability … 21-25° C.” value (390 days)?
**A.** 0.146 µg/mL

**Q.** What about the “Stability … 21-25° C.” value (420 days) of the same molecule?
**A.** 0.143 µg/mL

**Q.** What about the “Stability … 21-25° C.” value (450 days) of the same molecule?
**A.** 0.144 µg/mL

**Q.** And the “Stability … 21-25° C.” value (480 days)?
**A.** 0.143 µg/mL

**Q.** And the “Stability … 21-25° C.” value (510 days)?
**A.** 0.139 µg/mL

**Q.** And the “Stability … 21-25° C.” value (540 days)?
**A.** 0.140 µg/mL

**Q.** And the “Stability … 21-25° C.” value (570 days)?
**A.** 0.138 µg/mL
